Reference: patent publication US12172976B2, “Delocalized lipophilic cation compounds and methods of use thereof” (The Board of Trustees of the Leland Stanford Junior …, priority 2019, dated 2024)
Each block holds one compound with its values, some of them ahead of it.

Tests used:
[1] = Fluorescence quantum yield against Rhodamine 6G; format: physicochemical; conditions: in ethanol, Rhodamine 6G as reference
Description: The quantum yield of compounds (1) through (11) was measured in ethanol using Rhodamine 6G as a reference.
The fluorescence quantum yields of the compounds were determined using the formula (ϕ=ϕs(Fx/Fs) (As/Ax), where ϕ is quantum yield, F is the integrated area under the corrected emission spectrum, and A is the absorbance at the excitation wavelength; the subscripts x and s refer to F16s and the standard, respectively. Rhodamine 6G (OF 95%) in ethanol was used as the standard. All compounds and Rhodamine 6G were dissolved in ethanol in 5 different concentrations with the absorbance lower than 0.1 at 425 nm. The corresponding 5 different fluorescences of the compounds and Rhodamine 6G were excited at 425 nm and the emission spectra from 450 nm to 650 nm were obtained for the following integrated area measurement. All data was analyzed using Origin Pro 9.0 software (OriginLab, Northampton, Massachusetts, USA) to get the compounds' final quantum yield.

[2] = Photostability under continuous excitation; format: physicochemical; conditions: 10 μM in water, continuously excited for 50 mins
Description: A 75 W Xenon arc lamp (Hamamatsu, San Jose, California, USA) with 420-470 nm bond pass filter (MF445-45, Thorlabs, Newton, New Jersey, USA) was used as the light source for the F16 derivatives, Rhodamine 6G, and Mitotracker® Green. Analogously, a 540-580 nm bond pass filter (MF559-34, Thorlabs, Newton, New Jersey, USA) was used to excite Mitotracker Red. All the dyes were dissolved in water at a 10 μM concentration in 700 μL micro quartz cuvettes (10 mm, Sigma-Aldrich, St. Louis, MO, USA). They were continuously excited for 50 mins. During this period, the fluorescence intensity was measured every 5 mins at 525 nm (F16s, Rhodamine 6G, Mitotracker Green) or 600 nm (Mitotracker Red). Relative fluorescence intensity change was monitored over time.

[3] = system: bladder cancer T24 cells, non-small cell lung cancer (NSCLC) H838 cells, normal HIN-3T3 cells; test: In vitro cytotoxicity, anti-tumor activity and selectivity against normal cells; format: cell-based; conditions: Homo sapiens, NCI-H838, 72 h, 3 days
Description: (§1) The cytotoxicity of compounds (1) through (11) was tested in vitro with bladder cancer T24 cells, non-small cell lung cancer (NSCLC) H838 cells, and normal HIN-3T3 cells (FIG. 4). All test cell lines were incubated in 96-well plates overnight at a density of 3000 cells/well. The culture medium was replaced with 200 μL of culture medium, into which the testing compound was dispersed at various concentrations (1.95-500 μM). After incubating for 3 days, the viable cell numbers were checked and directly counted under microscopy (10×). A minimum of 1 mm×1 mm area was counted from each of at least three widely separated regions of cell culture. The cell proliferation rate was calculated by the following formula: cell proliferation rate (%)=(average cell number of sample wells/average cell number of control wells)×100%. The intact culture medium was evaluated as a control.

[4] = UV absorbance of the compounds; format: physicochemical; conditions: 31 μM in water
Description: The absorbance and fluorescence of delocalized lipophilic cation compounds (1) through (11) were measured. UV absorbance of the compounds was recorded on an Agilent 8453 UV spectrophotometer at a concentration of 31 μM in water. Fluorescence was recorded on a Fluoromax-3 spectrafluorometer (Jobin Yvon) at a concentration of 7.8 μM in water.

[5] = system: bladder cancer T24 cells; test: In vitro cytotoxicity, T24; format: cell-based; conditions: Homo sapiens, T-24, 72 h, 3 days
Description: as §1

[6] = system: human lung adenocarcinoma HCC827 xenograft; test: Tumor growth and body weight in the HCC827 xenograft; format: in vivo, nude mice
Description: (§2) In vivo studies on the effect of compound (3) on the tumor growth and body mass of a mouse model were conducted. Female athymic nude mice (nu/nu) from 4-6 weeks old were obtained from Charles River Laboratories (Boston, MA, USA) and kept under sterile conditions. 5×10^6 human lung adenocarcinoma HCC827 cells suspended in 150 μL of PBS were inoculated subcutaneously in the right shoulder of the nude mice. When the tumors reached 3˜5 mm in diameter, the tumor bearing mice were administered i.v. with compound (3) (dissolved in 150 μL PBS, with 2 μL DMSO) at 15 mg/kg on days 1, 3, 5, 7, 9, 11, 13, 15, 17, 19, 21. Correspondingly, untreated tumor-bearing mice serving as controls were administered i.v. with 150 μL 1×PBS pH 7.4 (with 2 μL DMSO) on the same days as the treated mice. Ten mice were used for each group. Length and width of the elliptical tumors were measured by Vernier caliper after every intravenous injection. Modified ellipsoid formula ½ (Length×Width^2) was used to calculate the tumor size. The tumor growth was calculated with the ratio of final volume (FV) minus initial volume (IV) to initial volume (IV).

[7] = system: H838 cells; test: Dependence of mitochondrial accumulation on mitochondrial membrane potential; format: cell-based
Description: To examine whether the mitochondrial membrane potential (ΔΨm) causes the accumulation of delocalized lipophilic cation compounds in mitochondria, H838 cells were preincubated with medium containing high concentrations of K^+ ions (i.e. 137 mM), to depolarize the mitochondrial membrane, or low concentrations of K^+ ions (i.e. 3 mM). Next, 3 μM of compound (3) was added and the cells were incubated for 30 minutes.

[8] = system: non-small cell lung cancer (NSCLC) H838 cells; test: In vitro cytotoxicity, H838; format: cell-based; conditions: Homo sapiens, NCI-H838, 72 h, 3 days
Description: as §1

[9] = system: subcutaneous HCC827 tumor; test: In vivo fluorescent imaging of mice bearing HCC827 tumors; design: species or system nude mice; conditions: 15 mg/kg intravenous
Description: as §2, with “(IV). In vivo fluorescent imaging was taken 40 minutes and 2 hours after the injection of compound (3) 15 mg/kg. IVIS spectrum instrument was used. Excitation wavelength was set at 450 nm. Collection wavelength was set at 550 nm, using a 3s acquisition time. […]” for “(IV).”

[10] = system: NSCLC cell lines HCC827, H838, HCC4006, H1693, H2030, H2228, A549, H1437, H1944; test: Cytotoxicity in nine lung cancer cell lines; format: cell-based; conditions: all nine NSCLC cell lines
[11] = system: mitochondria; test: Mitochondrial targeting, fluorescence microscopy of stained cells; format: cell-based; conditions: NIH-353, H838, and T24 cell lines
Description: The mitochondrial targeting properties of compounds (1) through (11) were tested. 3 μM compounds were added to cells grown in a MatTek glass-bottom culture dishes (Ashland, Massachusetts) for 1 h and washed with PBS (phosphate-buffered saline) three times. After replacement of the medium, cells were imaged using a fluorescent microscope (Zeiss) with a 63× oil or 20× objective lens (excited in the GFP channel).
Mitotracker@ Red (Molecular Probes) and Hoechst (Thermo Scientific) were added to the medium to stain the mitochondria and nuclei, following the manufacturer's procedures. Cells were photographed using a 63× oil or 20× objective lens.

[12] = system: H2228 cell line; test: In vitro cytotoxicity, H2228; format: cell-based
[13] = system: carcinoma cell; test: Flow cytometry of carcinoma cell growth; format: cell-based

SMILES: Cn1cc(/C=C/c2cc[n+](C)cc2)c2cc(F)ccc21 [(1)]
quantum yield [1]: around 12%
photostability [2]: bleached relatively easily

SMILES: C[n+]1ccc(/C=C/c2c[nH]c3c2ccc2ccccc23)cc1 [(2)]
quantum yield [1]: around 12%
IC50 [3]: 360 to 6200 nM

SMILES: C[n+]1ccc(/C=C/c2c[nH]c3ccc(Br)cc23)cc1 [(5)]
absorption peak / absorption maxima [4]: about 450 nm
IC50 [3]: 360 to 6200 nM

SMILES: C[n+]1ccc(/C=C/c2c[nH]c3ccc(F)cc23)cc1 [(7)]
quantum yield [1]: around 20%

SMILES: C[n+]1ccc(/C=C/c2c(Cl)[nH]c3ccccc23)cc1 [(8)]
photostability [2]: bleached relatively easily

Second part, led by results:

absorption peak / absorption maxima [4]: about 450 nm
quantum yield [1]: around 20%
photostability [2]: bleached relatively easily
SMILES: Cc1ccc2[nH]c(C)c(/C=C/c3cc[n+](C)cc3)c2c1 [(9)]

tumor to background ratio ([9]; 2 h post injection): ~2
quantum yield [1]: around 20%
SMILES: Cc1cc(Br)cc2c(/C=C/c3cc[n+](C)cc3)c[nH]c12 [Compound (3)]
IC50 [5]: 820 nM
tumor volume compared to PBS treated group ([6]; 15 mg/kg i.v. on days 1 to 21 every other day, 21 days PI, p=0.0426): decreased dramatically
bodyweight between control and treated group ([6]; 15 mg/kg i.v., p=0.477): no significant difference
tumor pathologic section H&E staining ([6]; HCC827 tumor of treated mice): caused tumor inflammatory cell infiltration, fibrous tissue proliferation, and cell apoptosis
accumulation in the mitochondria, low K+ ([7]; 3 μM, 30 minutes, preincubation with 3 mM K+): more accumulation
accumulation in the mitochondria, high K+ ([7]; 3 μM, 30 minutes, preincubation with 137 mM K+): less accumulation
mitochondrial staining after addition of FCCP ([7]; FCCP added to the cells): immediately decayed and diffused into the cytoplasm
IC50 [8]: 360 nM
organ accumulation ([9]; compared with liver, spleen, heart, lung, and brain): Tumor, kidney, bone, stomach, bowel, pancreas and skin accumulated more
IC50 [3]: 360 to 6200 nM
ATCA (antitumor activity) in NSCLC cell lines [10]: impressively high ATCA
colocalization with MitoTrack [11]: colocalization
anti-cancer cell to anti-normal cell ratio ([12]; H2228 against 3T3): around 225
IC50 ([12]; Homo sapiens, NCI-H2228, H2228 cell line): 48.9 nM
carcinoma cell growth by flow cytometry [13]: inhibited carcinoma cell growth in a time-dependent manner

quantum yield [1]: 49.1%
SMILES: C[n+]1ccc(/C=C/c2c[nH]c3ccc(C#N)cc23)cc1 [Compound (4)]
IC50 [3]: 360 to 6200 nM
